In US8853271B2, “Method for inhibiting activity and/or expression of matrix metalloproteinase, inhibiting phosphorylation of mitogen-activated protein kinase, and/or promoting expression of collagen using tormentic acid” (China Medical University, priority 2010, dated 2014):

Tests used:
[1] = system: matrix metalloproteinase-1; assay: Western blotting of matrix metalloproteinase-1 in UV-exposed fibroblasts; format: cell-based, human; details: WS1 fibroblasts exposed to UV for 24 hours, treated for 1 hour before collection
c-Fos = assay: Western blotting of AP-1 subunit c-Fos in the nucleus; format: cell-based, human; details: WS1 fibroblasts exposed to UV for 24 hours, treated for 1 hour before collection
From the text: (§1) The UV exposure of cells induces JNK and p38 to activate c-Jun, which then enters into the nucleus. Then, c-Fos translocates into the nucleus under the regulation of ERK and p38. A c-Jun subunit combines with a c-Fos subunit to form an activator protein 1 (AP-1) gene transcription factor, which then participates in gene expression to promote the transcription of message RNA (mRNA) of matrix metalloproteinase-1 (MMP-1) and reduces the gene expression of procollagen-Iα1 (procollagen α1 of Type I collagen). Thus, a western blotting assay was carried out in this experiment to further observe the protein expression of AP-1 in the nucleus, and the result is shown in FIG. 6. After the WS1 human skin dermal fibroblasts were exposed to UV rays for 24 hours, the expression level of c-Jun and c-Fos in the nucleus were increased. However, when the cells were treated with tormentic acid for 1 hour before collection, the expression of c-Jun and c-Fos were inhibited.

[2] = system: matrix metalloproteinase (collagenase, Sigma); assay: Fluorogenic substrate test (collagenase substrate III); format: biochemical
From the text: (§2) In addition to collagen decomposing, matrix metalloproteinase (collagenase) has the effect of gelatin decomposing. The property of the fluorescence generation of decomposed gelatin and decomposed commercial substrates of collagenase (purchased from Calbiochem, la Jolla, […]) was used in this example to evaluate the inhibitory effect of tormentic acid on the matrix metalloproteinase.
A specific amount of a solution of the collagenase substrate III (Mcc-Pro-Leu-Gly-Pro-D-Lys (DNP)—OH, purchased from Calbiochem, la Jolla, […]), a matrix metalloproteinase (collagenase, Sigma) solution, tormentic acid or doxycycline as the positive control were mixed and added to a 96 well plate. Then, an ELISA reader was used to determine the […] (405 nm), respectively. The results are shown in Table 2 and FIG. 3, wherein ΔF is the fluorescence value that the basic fluorescence value at time zero has been deducted.

c-Jun = assay: Western blotting of AP-1 subunit c-Jun in the nucleus; format: cell-based, human; details: WS1 fibroblasts exposed to UV for 24 hours, treated for 1 hour before collection
From the text: as §1

[3] = system: c-Jun N-terminal Kinase (JNK); assay: Western blotting of phosphorylated JNK in UV-exposed fibroblasts; format: cell-based, human; details: WS1 fibroblasts exposed to UV for 24 hours, treated for 1 hour before collection
Description: (§3) The skin “photo-aging” caused by ultraviolet rays may lead to an increase of matrix metalloproteinase in the dermis via the phosphorylation of the mitogen-activated protein kinase (MAPK), and thus a western blotting assay was also carried out in this experiment to observe the effect of tormentic acid on the phosphorylation of mitogen-activated protein kinase in cells; the result is shown in FIG. 5.
(§4) However, when the cells were treated with tormentic acid for 1 hour before collection, the phosphorylation of JNK, ERK, and p38 can be inhibited.

p38 protein = assay: Western blotting of phosphorylated p38 in UV-exposed fibroblasts; format: cell-based, human; details: WS1 fibroblasts exposed to UV for 24 hours, treated for 1 hour before collection
Description: as §3, §4

[4] = system: extracellular signal-regulated protein kinase (ERK); assay: Western blotting of phosphorylated ERK in UV-exposed fibroblasts; format: cell-based, human; details: WS1 fibroblasts exposed to UV for 24 hours, treated for 1 hour before collection
Description: as §3, §4

[5] = system: bacterial matrix metalloproteinase; assay: Decomposition test of gelatin (inhibition of matrix metalloproteinase activity); format: biochemical
Description: as §2
A 50 μl buffer solution (pH 7.8, contained 50 mM Tris-HCl, 10 mM calcium chloride, and 0.15 M sodium chloride), 30 μl sterile water, and 10 μl bacterial matrix metalloproteinase (0.1 mg/ml, Sigma) were added into an eppendorf tube, and then a 10 μl solution of tormentic acid ([…]) or doxycycline as the positive control was added into the eppendorf tube. The mixture was well mixed, and incubated at room temperature for 60 minutes.
The mixture (30 μl) was drawn and dropped on a circular filter paper covering a gelatin culture medium, and then the filter paper along with the medium was placed into an incubator under 37° C. After incubating for 18 hours, the filter paper was removed. The culture medium was stained with a Coomassie Blue R-250 staining solution (purchased from Amresco company, America), and then was destained with a destaining solution. Because gelatin decomposed by matrix metalloproteinase will not be stained by the Coomassie Blue staining solution, the transparency of the culture medium may reveal the activity of the matrix metalloproteinase. After the culture medium was photographed, the picture was analyzed by an image analysis software (AlphaDigiDoc 1201, purchased from Alpha Innotech Co., America) to calculate the inhibition rate of tormentic acid on the activity of gelatin decomposition of the matrix metalloproteinase.

procollagen-1 = assay: Western blotting of procollagen-1 in UV-exposed fibroblasts; format: cell-based, human; details: WS1 fibroblasts exposed to UV for 24 hours, treated for 1 hour before collection
[6] = system: WS1 human skin dermal fibroblasts; assay: Test of cell survival rate (MTS assay) under UV exposure; format: cell-based; details: for absorption value (MTS, 490 nm) / survival rate (%): UV 90 mJ/cm^2, 24 hours; for death of the cells (in words): 90 mJ/cm^2 UV
Description: The following experiment was carried out by using WS1 human skin dermal fibroblasts (purchased from Food Industry Research and Development Institute, Taiwan). Under exposure to the ultraviolet ray (UV) with the intensity range from 0 mJ/cm^2 to 120 mJ/cm^2, it will not cause death to WS1 human skin dermal fibroblasts. Thus, this experiment was carried out at the UV intensity of 90 mJ/cm^2. First, tormentic acid of various concentrations (0, 0.1, 1.0, 2.0, or 10 μg/ml) was added to a culture medium (comprising α-minimum essential medium, 10% heat-inactivated Fetal Bovine Serum, 100 U/ml penicillin, and 100 μg/ml Streptomycin) containing the WS1 human skin dermal fibroblasts. After the cells were cultured for 24 hours, an MTS (3-(4,5-di-methylthiazol-2-yl)-5-(3-carboxymethoxy phenyl)-2-(4-sulfophenyl)-2H-tetrazolium, commercially available from Promega, Madison, Wis., America) assay was carried out to observe the cell survival rate, and the results are shown in Table 3. The mechanism of the MTS assay is as follows: the dehydrogenase activity of living cells can reduce MTS to a water soluble product that is red purple in color, which has a maximum absorption at a wavelength of 490 nm, and thus, the cell survival rate can be evaluated by absorption values.

C[C@@H]1CC[C@]2(C(=O)O)CC[C@]3(C)C(=CC[C@@H]4[C@@]5(C)C[C@@H](O)[C@H](O)C(C)(C)[C@@H]5CC[C@]43C)[C@@H]2[C@]1(C)O [tormentic acid]
expression of matrix metalloproteinase-1 [1]: inhibited | expression of c-Fos in the nucleus (c-Fos): inhibited | generation of fluorescence from collagenase substrate III (in words) [2]: can reduce the generation of fluorescence | Inhibition rate (collagenase substrate III decomposition) ([2]; 50 μg/ml): (39%) | ΔF (fluorescence value, time-zero value deducted) ([2]; 50 μg/ml): 54.8 ± 8.4 | Inhibition rate (collagenase substrate III decomposition) ([2]; 100 μg/ml): (44.7%) | ΔF (fluorescence value, time-zero value deducted) ([2]; 100 μg/ml): 49.8 ± 7.2 | Inhibition rate (collagenase substrate III decomposition) ([2]; 250 μg/ml): (79.1%) | ΔF (fluorescence value, time-zero value deducted) ([2]; 250 μg/ml): 18.8 ± 10.8 | expression of c-Jun in the nucleus (c-Jun): inhibited | phosphorylation of JNK [3]: inhibited | phosphorylation of p38 (p38 protein): inhibited | phosphorylation of ERK [4]: inhibited | Inhibition rate (%) of gelatin decomposing activity ([5]; 25 μg/ml): 3.7% | Inhibition rate (%) of gelatin decomposing activity ([5]; 50 μg/ml): 24.0% | Inhibition rate (%) of gelatin decomposing activity ([5]; 100 μg/ml): 62.7% | Inhibition rate (%) of gelatin decomposing activity ([5]; 200 μg/ml): 75.3% | activity of gelatin decomposition of the matrix metalloproteinase (in words) ([5]; 25-200 μg/ml): significantly inhibited | expression of procollagen-1 (procollagen-1): increased | absorption value (MTS, 490 nm) ([6]; 0.1 μg/ml): 1.08 ± 0.95 | survival rate (%) ([6]; 0.1 μg/ml): 103.8% | absorption value (MTS, 490 nm) ([6]; 1.0 μg/ml): 1.10 ± 0.97 | survival rate (%) ([6]; 1.0 μg/ml): 105.8% | absorption value (MTS, 490 nm) ([6]; 2.0 μg/ml): 1.10 ± 0.98 | survival rate (%) ([6]; 2.0 μg/ml): 105.8% | absorption value (MTS, 490 nm) ([6]; 10.0 μg/ml): 0.83 ± 0.70 | survival rate (%) ([6]; 10.0 μg/ml): 79.8% | death of the cells (in words) ([6]; concentration of 10 μg/ml): caused the death of the cells | death of the cells (in words) ([6]; concentration of lower than 2 μg/ml): did not cause the death of the cells | cytotoxicity (in words) ([6]; low concentration): no cytotoxicity
